The EC50 is the concentration needed to bring the measured effect to its halfway point. Read a low EC50 as an effect from little substance.

Molecules are shown by their SMILES.

This experiment relates to HCV genotype 1b replicon. The experiment can be described thus: HCV replicon assay, genotype 1b. Format: cell-based, hepatitis C virus. The note with it: Hepatitis C virus; genotype 1b replicon cells, 24 to 72 hours incubation, luciferase activity. As for the experimental part: The HCV replicons and NS5A inhibitory activity of the present compounds may be tested using assays known in the art. HCV inhibitors, such as those described in the Examples herein have activities in genotype 1b, 2a and 1a replicon assays of from about 1 pM to about 1 μM. The assay is performed by incubating a replicon harboring cell-line in the presence of inhibitor for a set period of time and measuring the effect of the inhibitor on HCV replicon replication either directly by quantifying replicon RNA level, or indirectly by measuring enzymatic activity of a co-encoded reporter enzyme such as luciferase or β-lactamase. By performing a series of such measurements at different inhibitor concentrations, the effective inhibitory concentration of the inhibitor (EC50 or EC90) is determined. See Jan M. Vrolijk et al., A replicons-based bioassay for the measurement of interferons in patients with chronic hepatitis C, 110 J. VIROLOGICAL METHODS 201 (2003). Such assays may also be run in an automated format for high through-put screening. See Paul Zuck et al., A cell-based β-lactamase reporter gene assay for the identification of inhibitors of hepatitis C virus replication, 334 ANALYTICAL BIOCHEMISTRY 344 (2004).
Measurement of inhibition by compounds was performed using the HCV replicon system. Several different replicons encoding different HCV genotypes or mutations were used. In addition, potency measurements were made using different formats of the replicon assay, including different ways of measurements and different plating formats. See Jan M. Vrolijk et al., A replicons-based bioassay for the measurement of interferons in patients with chronic hepatitis C, 110 J. VIROLOGICAL METHODS 201 (2003); Steven S. Carroll et al., Inhibition of Hepatitis C Virus RNA Replication by 2′-Modified Nucleoside Analogs, 278(14) J. BIOLOGICAL CHEMISTRY 11979 (2003). However, the underlying principles are common to all of these determinations, and are outlined below.
Stable neomycin phosphotransferase encoding replicon-harboring cell lines were used, so all cell lines were maintained under G418 selection prior to the assay. In some cases, the cell lines encoded a luciferase:Neor fusion and could be assayed either directly by determination of RNA copy number, or indirectly through measurement of the luciferase activity.
To initiate an assay, replicon cells were plated in the presence of a dilution series of test compound in the absence of G418. Typically, the assays were performed in a 96-well plate format for manual operation, or a 384-well plate in an automated assay. Replicon cells and compound were incubated for 24 to 72 hours. At the end of the assay, cells are washed free of media and compound and then lysed. Luciferase activity was measured using a conventional luciferase assay. EC50 determinations were calculated as a percent of a DMSO control by fitting the data to a four parameter fit function.
The activity table below provides representative data illustrating observed activity against genotype 1b.
(In antiviral work, replicon cells carry a viral genome segment that copies itself.)
For `CC(=O)N1CCC[C@H]1C(=O)Nc1ccc(-c2[nH]c3ccc(NC(=O)[C@@H]4CCCN4C(=O)[C@H](NC(=O)OC(C)(C)C)c4ccccc4)cc3c2F)cc1` [Example 137, tert-butyl {(1R)-2-[(2S)-2-({2-[4-({[(2S)-1-acetylpyrrolidin-2-yl]carbonyl}amino)phenyl]-3-fluoro-1H-indol-5-yl}carbamoyl)pyrrolidin-1-yl]-2-oxo-1-phenylethyl}carbamate], the EC50 came out at 0.009 nM.

Take `CC(C)(C)OC(=O)N[C@H](C(=O)N1CCC[C@H]1C(=O)Nc1ccc(-c2[nH]c3ccc(NC(=O)[C@@H]4CCCN4C(=O)[C@@H](NC(=O)OC(C)(C)C)c4ccccc4)cc3c2F)cc1)c1ccccc1` [Example 130, tert-butyl {(1S)-2-[(2S)-2-({4-[5-({[(2S)-1-{(2S)-2-[(tert-butoxycarbonyl)amino]-2-phenylacetyl}pyrrolidin-2-yl]carbonyl}amino)-3-fluoro-1H-indol-2-yl]phenyl}carbamoyl)pyrrolidin-1-yl]-2-oxo-1-phenylethyl}carbamate]: the EC50 came out at 0.05 nM. Then `O=C(Nc1cnc(-c2cc3cc(NC(=O)[C@@H]4CCCN4C(=O)Cc4ccccc4)ccc3[nH]2)nc1)[C@@H]1CCCN1C(=O)Cc1ccccc1` [Example 42], with 14 nM.

The compound `CCN(CC)[C@@H](C(=O)N1CCC[C@H]1C(=O)Nc1ccc2oc(-c3ccc(NC(C)=O)cc3)cc2c1)c1ccccc1` [Example 30] returned a half-maximal effective concentration (EC50) of 26 nM. For `CC(C)(C)OC(=O)N[C@@H](C(=O)N1CCC[C@H]1C(=O)Nc1ccc2[nH]c(-c3ccc(-c4cnc([C@@H]5CCCN5C(=O)[C@H](NC(=O)OC(C)(C)C)c5ccccc5)[nH]4)cc3)cc2c1)c1ccccc1` [Example 99, tert-butyl {(1R)-2-[(2S)-2-(5-{4-[5-({[(2S)-1-{(2R)-2-[(tert-butoxycarbonyl)amino]-2-phenylacetyl}pyrrolidin-2-yl]carbonyl}amino)-1H-indol-2-yl]phenyl}-1H-imidazol-2-yl)pyrrolidin-1-yl]-2-oxo-1-phenylethyl}carbamate], it took 0.038 nM to reach a half-maximal effect (EC50). Then `CCN(CC)[C@@H](C(=O)N1CCC[C@H]1c1ncc(-c2ccc(-c3cc4cc(-c5cnc([C@@H]6CCCN6C(=O)[C@@H](c6ccccc6)N(CC)CC)[nH]5)ccc4o3)cc2)[nH]1)c1ccccc1` [Example 193, (2R)-2-(diethylamino)-1-[(2S)-2-(5-{4-[5-(2-{(2S)-1-[(2R)-2-(diethylamino)-2-phenylacetyl]pyrrolidin-2-yl}-1H-imidazol-5-yl)-1-benzofuran-2-yl]phenyl}-1H-imidazol-2-yl)pyrrolidin-1-yl]-2-phenylethanone], with 0.05 nM; and `CC(=O)Nc1ccc(-c2cc3cc(NC(=O)[C@@H]4CCCN4C(=O)[C@@H](c4ccccc4)N4CCCC4)ccc3[nH]2)cc1` [Example 58, N-{2-[4-(acetylamino)phenyl]-1H-indol-5-yl}-1[(2R)-2-phenyl-2-(pyrrolidin-1-yl)acetyl]-L-prolinamide], with 0.97 nM. Then `CC(=O)NCC#Cc1cc2cc(NC(=O)[C@@H]3CCCN3C(=O)[C@H](NC(=O)OC(C)(C)C)c3ccccc3)ccc2[nH]1` [Example 178, tert-butyl {(1R)-2-[(2S)-2-({2-[3-(acetylamino)prop-1-yn-1-yl]-1H-indol-5-yl}carbamoyl)pyrrolidin-1-yl]-2-oxo-1-phenylethyl}carbamate], with 317 nM; and `CCN(CC)[C@@H](C(=O)N1CCC[C@H]1C(=O)Nc1ccc(-c2cc3cc(NC(=O)[C@@H]4CCCN4C(=O)[C@@H](c4ccccc4)N(CC)CC)ccc3o2)cc1)c1ccccc1` [Example 26, (2S)-1-[(2R)-2-(diethylamino)-2-phenylacetyl]-N-(4-{5-[({(2S)-1-[(2R)-2-(diethylamino)-2-phenylacetyl]pyrrolidin-2-yl}carbonyl)amino]-1-benzofuran-2-yl}phenyl)pyrrolidine-2-carboxamide], with 0.063 nM. Then `Cc1cccc(-c2c(-c3ccc(NC(=O)[C@@H]4CCCN4C(=O)[C@H](NC(=O)OC(C)(C)C)c4ccccc4)cc3)[nH]c3ccc(NC(=O)[C@@H]4CCCN4C(=O)[C@H](NC(=O)OC(C)(C)C)c4ccccc4)cc23)c1` [Example 169, tert-butyl {(1R)-2-[(2S)-2-({4-[5-({[(2S)-1-{(2R)-2-[(tert-butoxycarbonyl)amino]-2-phenylacetyl}pyrrolidin-2-yl]carbonyl}amino)-3-(3-methylphenyl)-1H-indol-2-yl]phenyl}carbamoyl)pyrrolidin-1-yl]-2-oxo-1-phenylethyl}carbamate], with 0.004 nM; and `COC(=O)N[C@H](C(=O)N1CCC[C@H]1c1ncc(-c2ccc3c(c2)OCn2c-3c(F)c3cc(-c4cnc([C@@H]5CCCN5C(=O)[C@@H](NC(=O)OC)C(C)C)[nH]4)ccc32)[nH]1)C(C)C` [Example 189b], with 0.001 nM; and `CN(C)[C@@H](C(=O)N1CCC[C@H]1C(=O)Nc1ccc2c(c1)CCCc1c-2[nH]c2ccc(NC(=O)[C@@H]3CCCN3C(=O)[C@@H](c3ccccc3)N(C)C)cc12)c1ccccc1` [Example 95, (2S,2′S)-N,N′-5,6,7,12-tetrahydrobenzo[6,7]cyclohepta[1,2-b]indole-3,9-diylbis{1-[(2R)-2-(dimethylamino)-2-phenylacetyl]pyrrolidine-2-carboxamide}], with 0.01 nM. As to `CC(C)(C)OC(=O)N[C@@H](C(=O)N1CCC[C@H]1C(=O)Nc1ccc2[nH]c(-c3ccc(-c4c[nH]cn4)cc3)cc2c1)c1ccccc1` [Example 102, tert-butyl {(1R)-2-[(2S)-2-({2-[4-(1H-imidazol-4-yl)phenyl]-1H-indol-5-yl}carbamoyl)pyrrolidin-1-yl]-2-oxo-1-phenylethyl}carbamate], the EC50 amounted to 8.3 nM.

(Values after patent publication US11053243B2 (Merck Sharp & Dohme Corp., priority 2009, dated 2021).)
